Here are results for three compounds from patent US20050202070A1, “Iodine/iodide-containing hot melt coatable adhesive, methods and uses therefor” (priority 2002, published 2005).

The structures appear in SMILES notation. Like-named read-outs stand apart in the source and are kept apart here.

For data set [1] the following is noted: cited from earlier work.
Data set [2] can be described thus: Solubility of PVPI, I2/NaI and I2 in plasticizer compounds.

As to `II` [iodine], the results for the Vapor pressure in data set [1] (at 25C), in data set [1] (at 90C) and in data set [1] (at 184.4C (boils)) were 0.30 mmHG, 26.7 mmHg and 760 mmHg, respectively.
On to `CCCCNS(=O)(=O)c1ccccc1` [Plasthall BSA, N-n-butylbenzenesulfonamide], for which, in data set [2], the “Solubility of 2% I2/2.4% NaI in the plasticizer” value is reported as “Soluble” and the “Solubility of 18% I2 in the plasticizer” value is “Soluble”.
With `CCCCC(CC)C(=O)OCCOCCOCCOCCOC(=O)C(CC)CCCC` (stereo not shown) [TerMerR 804, tetraethyleneglycol di-2ethylhexanoate], in data set [2], the “Solubility of 2% I2/2.4% NaI in the plasticizer” value was “Soluble” and the “Solubility of 18% I2 in the plasticizer” value was “Soluble”.
